Read-outs that look alike come from different tables or passages of the source.
How the values were obtained:
[1] = test system: Delta S protein pseudovirus (nCoV-S-Luc-B.1.617.2) in ACE2-293T cells; test: microbe, parasite or virus in culture; type: cell-based; settings: for Levels of viral infection, Delta, Ave.: luciferase activity, Control group as 100%; for IC50: read-out: 50% inhibitory concentrations (IC50) for viral infection, Delta, alkaloid compounds, n = 3
[2] = test system: Omicron S protein pseudovirus (nCoV-S-Luc-B.1.1.529) in ACE2-293T cells; test: microbe, parasite or virus in culture; type: cell-based; settings: read-out: 50% inhibitory concentrations (IC50) for viral infection, Omicron
[3] = test system: ACE2-293T cells

Compound	Levels of viral infection, Delta, Ave. ([1]; Conc. 1 μM) [%]	Levels of viral infection, Delta, Ave. ([1]; Conc. 5 μM) [%]	Levels of viral infection, Delta, Ave. ([1]; Conc. 10 μM) [%]	IC50 ([1]; Pseudovirus) [nM]	IC50 ([2]; Pseudovirus) [nM]	cytotoxic to the ACE2-293T cells (in words) [3]	Cell Viability (%) ([3]; human)	Levels of viral infection, Delta, Ave. ([1]; Conc. 0.1 μM) [%]	IC50 [1] [nM]	IC50 [2] [nM]	Cell Viability (%) [3] [%]
COc1ccc2cc1Oc1ccc(cc1)C[C@H]1c3cc(c(OC)cc3CCN1C)Oc1c(O)c(OC)cc3c1[C@H](C2)N(C)CC3 [Fangchinoline]	64.54	27.89	7.13	1820 ± 20	1440 ± 60	caused no damages	95.56 ± 2.82				
Cycleanine	88.48		−3.84					118.65	2210 ± 500	530 ± 30	
COc1cc2c3cc1Oc1c4c(cc5c1[C@H](Cc1ccc(cc1)Oc1cc(ccc1O)C[C@H]3N(C)CC2)N(C)CC5)OCO4 [Cepharanoline]	64.01		−3.64			caused no damages		89.65	1640 ± 180	1310 ± 70	97.24 ± 0.87

Source: patent US11839610B2 (priority 2022, dated 2023)
